The values below are quoted from earlier work in patent US20220288091A1, “Method for Improving Insulin Sensitivity” (priority 2019, published 2022).

Holding throughout (details): Miner et al.; cited from earlier work
The target in one series is T1, receptors for androgens (Homo sapiens, UniProt P10275).
T1 sequence (P10275 1-920): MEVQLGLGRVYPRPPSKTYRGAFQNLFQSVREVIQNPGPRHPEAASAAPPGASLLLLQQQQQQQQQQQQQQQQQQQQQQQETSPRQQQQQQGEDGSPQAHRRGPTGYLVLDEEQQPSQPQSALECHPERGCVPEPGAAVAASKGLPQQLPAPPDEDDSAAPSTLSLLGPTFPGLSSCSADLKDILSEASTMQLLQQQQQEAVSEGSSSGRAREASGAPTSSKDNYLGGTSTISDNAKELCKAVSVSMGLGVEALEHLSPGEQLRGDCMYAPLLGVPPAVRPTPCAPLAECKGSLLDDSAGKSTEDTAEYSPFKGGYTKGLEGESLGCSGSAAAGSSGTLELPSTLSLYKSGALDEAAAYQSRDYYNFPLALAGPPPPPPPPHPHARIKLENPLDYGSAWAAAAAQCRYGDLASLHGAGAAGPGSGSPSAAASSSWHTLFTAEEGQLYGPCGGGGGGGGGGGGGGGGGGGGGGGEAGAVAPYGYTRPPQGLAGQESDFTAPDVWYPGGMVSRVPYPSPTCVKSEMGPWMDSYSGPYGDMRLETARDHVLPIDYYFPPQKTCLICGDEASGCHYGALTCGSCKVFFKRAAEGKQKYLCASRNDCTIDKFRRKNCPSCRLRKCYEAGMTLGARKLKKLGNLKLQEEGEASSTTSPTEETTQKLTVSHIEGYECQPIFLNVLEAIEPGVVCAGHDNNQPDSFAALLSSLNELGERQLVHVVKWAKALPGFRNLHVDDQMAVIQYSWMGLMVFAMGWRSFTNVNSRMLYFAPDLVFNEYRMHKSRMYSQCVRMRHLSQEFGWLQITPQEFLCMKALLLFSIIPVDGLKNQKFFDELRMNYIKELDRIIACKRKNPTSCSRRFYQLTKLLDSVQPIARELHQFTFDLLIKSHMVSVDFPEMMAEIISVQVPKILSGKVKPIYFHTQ

Another series concerns receptors for estrogens.
In the next series the target is T2, GR (Homo sapiens, UniProt P04150).
T2 sequence (P04150 1-777): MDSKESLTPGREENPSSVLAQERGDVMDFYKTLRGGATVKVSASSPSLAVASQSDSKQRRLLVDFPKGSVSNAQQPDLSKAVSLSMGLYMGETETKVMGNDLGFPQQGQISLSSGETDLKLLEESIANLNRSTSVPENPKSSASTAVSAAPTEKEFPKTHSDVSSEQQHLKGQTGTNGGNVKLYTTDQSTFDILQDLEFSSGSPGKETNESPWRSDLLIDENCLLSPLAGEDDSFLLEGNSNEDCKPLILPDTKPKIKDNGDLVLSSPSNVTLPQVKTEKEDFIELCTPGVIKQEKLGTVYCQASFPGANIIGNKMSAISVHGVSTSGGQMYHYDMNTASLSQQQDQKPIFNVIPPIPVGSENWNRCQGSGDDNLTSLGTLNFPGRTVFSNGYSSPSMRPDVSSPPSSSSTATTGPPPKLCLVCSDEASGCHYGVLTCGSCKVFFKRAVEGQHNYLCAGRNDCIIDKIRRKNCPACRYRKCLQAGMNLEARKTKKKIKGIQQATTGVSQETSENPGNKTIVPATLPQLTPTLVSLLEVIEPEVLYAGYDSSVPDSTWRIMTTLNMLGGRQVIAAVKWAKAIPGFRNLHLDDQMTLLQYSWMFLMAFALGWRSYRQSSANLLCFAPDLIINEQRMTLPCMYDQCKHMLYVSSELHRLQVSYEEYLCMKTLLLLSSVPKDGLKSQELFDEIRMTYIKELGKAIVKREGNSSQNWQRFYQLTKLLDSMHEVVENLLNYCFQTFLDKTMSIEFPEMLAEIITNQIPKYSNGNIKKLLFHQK

The target in series [1] is T3, receptors for mineralocorticoids (Homo sapiens, UniProt P08235).
T3 sequence (P08235 1-984): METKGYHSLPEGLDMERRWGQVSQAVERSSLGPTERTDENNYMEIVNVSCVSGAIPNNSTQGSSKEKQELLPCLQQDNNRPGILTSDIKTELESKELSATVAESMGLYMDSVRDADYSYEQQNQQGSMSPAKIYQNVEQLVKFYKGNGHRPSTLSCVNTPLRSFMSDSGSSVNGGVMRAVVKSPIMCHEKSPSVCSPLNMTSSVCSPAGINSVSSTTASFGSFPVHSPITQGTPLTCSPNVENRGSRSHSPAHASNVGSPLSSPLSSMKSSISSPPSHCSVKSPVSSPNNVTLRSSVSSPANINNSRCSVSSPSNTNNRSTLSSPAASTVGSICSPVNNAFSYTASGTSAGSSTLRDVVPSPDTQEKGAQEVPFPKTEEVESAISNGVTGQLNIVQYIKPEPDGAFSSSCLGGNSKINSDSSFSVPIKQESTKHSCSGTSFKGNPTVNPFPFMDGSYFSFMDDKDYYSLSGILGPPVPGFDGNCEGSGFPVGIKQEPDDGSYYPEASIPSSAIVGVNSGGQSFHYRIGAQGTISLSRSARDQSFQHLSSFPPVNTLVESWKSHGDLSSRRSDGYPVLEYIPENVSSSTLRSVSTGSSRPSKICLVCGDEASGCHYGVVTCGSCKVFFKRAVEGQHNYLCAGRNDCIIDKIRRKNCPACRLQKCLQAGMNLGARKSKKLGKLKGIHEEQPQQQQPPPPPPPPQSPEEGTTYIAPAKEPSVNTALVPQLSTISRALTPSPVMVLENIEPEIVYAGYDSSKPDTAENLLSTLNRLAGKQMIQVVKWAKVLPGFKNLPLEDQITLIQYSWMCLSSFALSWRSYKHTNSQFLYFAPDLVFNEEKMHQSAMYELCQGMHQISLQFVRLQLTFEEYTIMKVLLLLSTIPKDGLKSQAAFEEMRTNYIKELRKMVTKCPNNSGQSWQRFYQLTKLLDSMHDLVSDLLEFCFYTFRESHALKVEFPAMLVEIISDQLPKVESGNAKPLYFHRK

In the next series the target is T4, receptors for progestins (Homo sapiens, UniProt P06401).
T4 sequence (P06401 1-933): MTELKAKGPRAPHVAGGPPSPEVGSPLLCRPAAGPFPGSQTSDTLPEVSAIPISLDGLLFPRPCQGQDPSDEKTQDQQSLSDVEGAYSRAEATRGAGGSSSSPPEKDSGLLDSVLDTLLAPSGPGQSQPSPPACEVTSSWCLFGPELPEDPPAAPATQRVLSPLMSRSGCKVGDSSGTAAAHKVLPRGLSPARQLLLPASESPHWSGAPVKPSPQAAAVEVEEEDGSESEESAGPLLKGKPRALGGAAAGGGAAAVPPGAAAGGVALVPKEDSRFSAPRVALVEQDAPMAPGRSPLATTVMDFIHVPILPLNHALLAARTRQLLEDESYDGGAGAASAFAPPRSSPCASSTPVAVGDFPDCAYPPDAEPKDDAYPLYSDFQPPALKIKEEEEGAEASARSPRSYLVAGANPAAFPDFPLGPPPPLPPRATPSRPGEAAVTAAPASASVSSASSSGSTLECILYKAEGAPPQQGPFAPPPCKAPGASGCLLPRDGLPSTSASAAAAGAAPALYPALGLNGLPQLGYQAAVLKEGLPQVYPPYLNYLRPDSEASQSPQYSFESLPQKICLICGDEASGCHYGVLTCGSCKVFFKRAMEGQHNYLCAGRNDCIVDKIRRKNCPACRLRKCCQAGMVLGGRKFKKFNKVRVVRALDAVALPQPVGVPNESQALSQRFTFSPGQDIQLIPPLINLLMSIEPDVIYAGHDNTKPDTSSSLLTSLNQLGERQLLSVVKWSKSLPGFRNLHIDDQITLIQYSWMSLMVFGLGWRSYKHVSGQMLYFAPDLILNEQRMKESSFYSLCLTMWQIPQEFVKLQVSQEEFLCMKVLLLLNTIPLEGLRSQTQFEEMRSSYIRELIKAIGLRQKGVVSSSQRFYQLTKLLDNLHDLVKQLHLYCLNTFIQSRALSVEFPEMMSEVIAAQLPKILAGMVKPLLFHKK

Molecules are shown by their SMILES.

As for `CN(C)c1ccc(C(c2ccc(N(C)C)cc2)c2cc([N+](=O)[O-])ccc2Cl)cc1` [[bis(4-N,N-dimethylaminophenyl)(2-chloro-5-nitrophenyl)methane]], the “Affinity for androgen receptor” value at receptors for androgens was “no detectable affinity”. Further, the “Affinity for estrogen receptor” value with receptors for estrogens is “no detectable affinity”. The “Affinity for the GR” value on GR was “nanomolar affinity”. In addition, in series [1], the “Affinity for mineralocorticoid receptor” value is “no detectable affinity”. Moreover, the “Affinity for progestin receptor” value on receptors for progestins was “no detectable affinity”.
